Reference: US8716275B2, “Compound for the treatment of hepatitis C” (Bristol-Meyers Squibb Company, priority 2011, dated 2014)

What was measured:
hERG potassium channel [1] = target: T1, hERG potassium channel (Homo sapiens, UniProt Q12809); assay: hERG patch clamp assay; type: cell-based; conditions: HEK293 cells stably transfected with hERG cDNA, peak tail currents, read-out: % Inhibition (Mean ± SE)
T1 construct: expressed in transfected cells; host or cells: HEK293
Source text: Cell Line. Human embryonic kidney (HEK293) cells stably transfected with human ether-a-go-go related gene (hERG) cDNA were used in the hERG assay. The biophysical and pharmacological properties of recombinant hERG channels expressed in HEK293 cells and of native IKr channels in human cardiac cells are nearly identical. Several known hERG blockers, including dofetilide, terfenadine, cisapride and E-4031 inhibit recombinant hERG currents in the hERG stable cell line and IKr currents in isolated cardiac myocytes with identical potency.
Patch Clamp. […]
Initially, a current-voltage relationship was generated in the control bath solution using the following voltage protocol. hERG currents were elicited by 2 second step depolarizations applied from a holding potential of −80 mV to test potentials ranging from −70 mV to +60 mV. […] The peak tail current was monitored until a new steady-state in the presence of test article was achieved. This was followed by the application of the next higher concentration of test article to be tested, and was repeated until all concentrations of test article had been evaluated. Effects of test article on hERG channel were calculated by measuring inhibition of peak tail currents. Percent inhibition of tail currents was plotted as a function of test article concentration to quantify hERG channel inhibition. […] All currents were recorded at room temperature 25° C.

[2] = tested on: genotype 1b HCV replicon in Huh-7 cells; assay: HCV Replicon Luciferase Assay; type: cell-based; conditions: Hepatitis C virus, Huh-7, 72 h
Description: Cell Lines. The cell lines used to evaluate compounds consist of a human hepatocyte derived cell line (Huh-7) that constitutively expresses a genotype 1b HCV replicon containing a Renilla luciferase reporter gene. These cells were maintained in Dulbecco's modified Eagle medium (DMEM) containing 10% FBS, 100 U/mL penicillin/streptomycin and 1.0 mg/mL G418.
HCV Replicon Luciferase Assay. To evaluate compound efficacy, titrated compounds were transferred to sterile 384-well tissue culture treated plates, and the plates were seeded with HCV replicon cells (50 μL at a density of 2.4×10^3 cells/well) in DMEM containing 4% FBS (final DMSO concentration at 0.5%). After 3 days incubation at 37° C., cells were analyzed for Renilla Luciferase activity using the EnduRen substrate (Promega cat #E6485) according to the manufacturer's directions. Briefly, the EnduRen substrate was diluted in DMEM and then added to the plates to a final concentration of 7.5 μM. The plates were incubated for at least 1 h at 37° C. then read on a Viewlux Imager (PerkinElmer) using a luminescence program. The 50% effective concentration (EC50) was calculated using the four-parameter logistic formula noted above.

[3] = target: NS5B protein of HCV, genotype 1b (Hepatitis C virus genotype 1b, UniProt Q9WMX2); assay: biochemical
NS5B protein of HCV, genotype 1b, sequence (Q9WMX2 2420-2992): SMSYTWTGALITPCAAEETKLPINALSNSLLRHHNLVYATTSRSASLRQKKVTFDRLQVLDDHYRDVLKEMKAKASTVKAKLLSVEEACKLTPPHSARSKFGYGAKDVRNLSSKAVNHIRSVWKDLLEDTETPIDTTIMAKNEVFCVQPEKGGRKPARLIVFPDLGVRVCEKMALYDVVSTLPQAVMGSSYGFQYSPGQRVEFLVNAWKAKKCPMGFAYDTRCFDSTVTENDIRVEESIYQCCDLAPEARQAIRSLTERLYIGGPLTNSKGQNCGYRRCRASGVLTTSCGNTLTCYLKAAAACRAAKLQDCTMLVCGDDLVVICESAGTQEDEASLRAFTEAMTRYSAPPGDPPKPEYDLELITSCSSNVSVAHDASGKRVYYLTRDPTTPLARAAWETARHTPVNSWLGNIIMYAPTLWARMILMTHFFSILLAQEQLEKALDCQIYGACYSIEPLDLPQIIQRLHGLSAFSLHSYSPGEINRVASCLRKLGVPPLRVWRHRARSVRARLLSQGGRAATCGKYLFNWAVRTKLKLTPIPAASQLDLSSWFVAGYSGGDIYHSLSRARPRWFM
Description: The cDNA encoding the NS5B protein of HCV, genotype 1b, was cloned into the pET21a expression vector. The protein was expressed with an 18 amino acid C-terminal truncation to enhance the solubility. The E. coli competent cell line BL21(DE3) was used for expression of the protein. Cultures were grown at 37° C. for ˜4 hours until the cultures reached an optical density of 2.0 at 600 nm. The cultures were cooled to 20° C. and induced with 1 mM IPTG. Fresh ampicillin was added to a final concentration of 50 μg/mL and the cells were grown overnight at 20° C.
The lysis buffer consisted of 20 mM Tris-HCl, pH 7.4, 500 mM NaCl, 0.5% triton X-100, 1 mM DTT, 1 mM EDTA, 20% glycerol, 0.5 mg/mL lysozyme, 10 mM MgCl2, 15 ug/mL deoxyribonuclease I, and Complete TM protease inhibitor tablets (Roche). After addition of the lysis buffer, frozen cell pellets were resuspended using a tissue homogenizer. […]
After incubating for at least 15 minutes, plates were read on an Amersham LEADseeker multimodality imaging system.
IC50 values for compounds were determined using ten different [I]. IC50 values were calculated from the inhibition using the four-parameter logistic formula y=A+((B−A)/(1+((C/x)^D))), where A and B denote minimal and maximal % inhibition, respectively, C is the IC50, D is hill slope and x represents compound concentration.

hERG potassium channel [4] = target: T1, hERG potassium channel; assay: hERG Flux assay (FLIPR); type: cell-based; conditions: HEK293 cells stably-expressing hERG, thallium flux
Description: Cells are incubated at 21° C. for 45 minutes.
Data Analysis. […] The raw fluorescence units data files generated on the FLIPR plate reader are automatically exported and processed by in-house data analysis tools.

T1 sequence (Q12809 whole entry): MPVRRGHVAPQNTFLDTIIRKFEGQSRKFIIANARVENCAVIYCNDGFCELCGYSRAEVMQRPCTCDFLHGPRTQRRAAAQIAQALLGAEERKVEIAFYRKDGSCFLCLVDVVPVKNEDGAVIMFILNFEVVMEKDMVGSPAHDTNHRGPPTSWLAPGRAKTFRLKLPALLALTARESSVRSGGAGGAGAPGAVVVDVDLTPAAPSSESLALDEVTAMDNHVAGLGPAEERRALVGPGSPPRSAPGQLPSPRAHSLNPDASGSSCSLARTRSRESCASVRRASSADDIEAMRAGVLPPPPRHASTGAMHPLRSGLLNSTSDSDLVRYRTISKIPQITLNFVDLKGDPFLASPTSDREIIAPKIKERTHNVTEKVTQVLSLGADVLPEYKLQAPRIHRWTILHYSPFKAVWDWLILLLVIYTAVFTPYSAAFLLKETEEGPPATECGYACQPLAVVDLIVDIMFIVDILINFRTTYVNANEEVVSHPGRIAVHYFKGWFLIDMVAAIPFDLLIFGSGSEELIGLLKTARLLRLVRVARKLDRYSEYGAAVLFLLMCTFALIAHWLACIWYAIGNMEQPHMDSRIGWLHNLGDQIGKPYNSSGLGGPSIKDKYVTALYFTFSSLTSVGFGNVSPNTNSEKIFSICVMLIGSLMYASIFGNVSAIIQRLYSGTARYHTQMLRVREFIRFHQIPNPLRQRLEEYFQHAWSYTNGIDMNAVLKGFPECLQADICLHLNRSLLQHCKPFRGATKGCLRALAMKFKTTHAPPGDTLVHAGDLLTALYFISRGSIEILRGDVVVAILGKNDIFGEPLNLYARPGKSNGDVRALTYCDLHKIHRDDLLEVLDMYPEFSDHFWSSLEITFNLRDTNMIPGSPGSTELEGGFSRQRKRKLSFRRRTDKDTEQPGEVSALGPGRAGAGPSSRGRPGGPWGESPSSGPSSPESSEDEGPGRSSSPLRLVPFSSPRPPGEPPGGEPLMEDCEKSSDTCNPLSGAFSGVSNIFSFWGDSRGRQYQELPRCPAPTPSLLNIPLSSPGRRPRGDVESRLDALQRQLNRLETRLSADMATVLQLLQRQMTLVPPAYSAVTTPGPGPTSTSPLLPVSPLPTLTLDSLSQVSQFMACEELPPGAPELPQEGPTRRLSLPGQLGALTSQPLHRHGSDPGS

CN1CC2CCC(C1)N2C(=O)[C@]12C[C@H]1c1cc(F)ccc1-c1c(C3CCCCC3)c3ccc(C(=O)NS(=O)(=O)C4(C)CC4)cc3n1C2 [Compound I, (1aR,12bS)-8-cyclohexyl-11-fluoro-N-((1-methylcyclopropyl)sulfonyl)-1a-((3-methyl-3,8-diazabicyclo[3.2.1]oct-8-yl)carbonyl)-1,1a,2,12b-tetrahydrocyclopropa[d]indolo[2,1-a][2]benzazepine-5-carboxamide]
inhibition at 10 μM (hERG potassium channel [1]; pH 7.4, Conc. 10 μM): 30.5 ± 1.9% | inhibition at 30 μM (hERG potassium channel [1]; pH 7.4, Conc. 30 μM): 43.4 ± 2% | EC50 [2]: 7 nM | IC50 [3]: 5 nM | IC50 (hERG potassium channel [4]): 23400 nM
